Results taken from US10308643B2, “Heterocyclic compound” (Takeda Pharmaceutical Company Limited, priority 2015, dated 2019).

Experiments:
Format in all cases: biochemical
HDAC9 enzyme = molecular target: T1, HDAC9 enzyme (Homo sapiens, UniProt Q9UKV0); experiment: HDAC9 Enzyme Inhibitory Assay (HDAC-Glo class IIa); conditions: 1 μM test compound; wells without enzyme = 100% inhibition; read-out: HDAC9 inhibitory rate (%) (1 μM)
T1 construct: transducing full length HDAC9 gene into Sf-9 insect cells; made in house; host or cells: Sf-9 insect cells
How it was run: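 Full-length human HDAC9 from Sf-9 cells, Ni-NTA purified, preincubated with compound for 60 min at room temperature in Tris-HCl pH 7.5 buffer (MgCl2, KCl, NaCl, glutathione, Tween-20). HDAC-Glo class IIa substrate-developer added; luminescence read after 20 min, with no-enzyme wells defining 100% inhibition.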

HDAC1 enzyme = molecular target: T2, HDAC1 enzyme (Homo sapiens, UniProt Q13547); experiment: HDAC1/6 Enzyme Inhibitory Assay (HDAC-Glo I/II Assay kit), HDAC1; conditions: 1 μM test compound; wells without enzyme = 100% inhibition; read-out: HDAC1 inhibitory rate (%) (1 μM)
T2 construct: transducing full length HDAC1 and HDAC6 genes into Sf-9 insect cells; GST; purchased SignalChem; host or cells: Sf-9 insect cells
How it was run: (§1)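 Luminescent HDAC-Glo I/II read-out was taken 20 min after adding substrate-developer, at room temperature. Before this, compound and enzyme were held together for 60 min in 24 mM Tris-HCl pH 7.5 with 0.6 mM glutathione and 0.01% Tween-20. The enzyme was full-length HDAC1 or HDAC6 from Sf-9 cells, GST-purified. Wells without enzyme defined 100% inhibition.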

HDAC6 enzyme = molecular target: T3, HDAC6 enzyme (Homo sapiens, UniProt Q9UBN7); experiment: HDAC1/6 Enzyme Inhibitory Assay (HDAC-Glo I/II Assay kit), HDAC6; conditions: 1 μM test compound; wells without enzyme = 100% inhibition; read-out: HDAC6 inhibitory rate (%) (1 μM)
T3 construct: transducing full length HDAC1 and HDAC6 genes into Sf-9 insect cells; GST; purchased SignalChem; host or cells: Sf-9 insect cells
T3 sequence (Q9UBN7 1-1215): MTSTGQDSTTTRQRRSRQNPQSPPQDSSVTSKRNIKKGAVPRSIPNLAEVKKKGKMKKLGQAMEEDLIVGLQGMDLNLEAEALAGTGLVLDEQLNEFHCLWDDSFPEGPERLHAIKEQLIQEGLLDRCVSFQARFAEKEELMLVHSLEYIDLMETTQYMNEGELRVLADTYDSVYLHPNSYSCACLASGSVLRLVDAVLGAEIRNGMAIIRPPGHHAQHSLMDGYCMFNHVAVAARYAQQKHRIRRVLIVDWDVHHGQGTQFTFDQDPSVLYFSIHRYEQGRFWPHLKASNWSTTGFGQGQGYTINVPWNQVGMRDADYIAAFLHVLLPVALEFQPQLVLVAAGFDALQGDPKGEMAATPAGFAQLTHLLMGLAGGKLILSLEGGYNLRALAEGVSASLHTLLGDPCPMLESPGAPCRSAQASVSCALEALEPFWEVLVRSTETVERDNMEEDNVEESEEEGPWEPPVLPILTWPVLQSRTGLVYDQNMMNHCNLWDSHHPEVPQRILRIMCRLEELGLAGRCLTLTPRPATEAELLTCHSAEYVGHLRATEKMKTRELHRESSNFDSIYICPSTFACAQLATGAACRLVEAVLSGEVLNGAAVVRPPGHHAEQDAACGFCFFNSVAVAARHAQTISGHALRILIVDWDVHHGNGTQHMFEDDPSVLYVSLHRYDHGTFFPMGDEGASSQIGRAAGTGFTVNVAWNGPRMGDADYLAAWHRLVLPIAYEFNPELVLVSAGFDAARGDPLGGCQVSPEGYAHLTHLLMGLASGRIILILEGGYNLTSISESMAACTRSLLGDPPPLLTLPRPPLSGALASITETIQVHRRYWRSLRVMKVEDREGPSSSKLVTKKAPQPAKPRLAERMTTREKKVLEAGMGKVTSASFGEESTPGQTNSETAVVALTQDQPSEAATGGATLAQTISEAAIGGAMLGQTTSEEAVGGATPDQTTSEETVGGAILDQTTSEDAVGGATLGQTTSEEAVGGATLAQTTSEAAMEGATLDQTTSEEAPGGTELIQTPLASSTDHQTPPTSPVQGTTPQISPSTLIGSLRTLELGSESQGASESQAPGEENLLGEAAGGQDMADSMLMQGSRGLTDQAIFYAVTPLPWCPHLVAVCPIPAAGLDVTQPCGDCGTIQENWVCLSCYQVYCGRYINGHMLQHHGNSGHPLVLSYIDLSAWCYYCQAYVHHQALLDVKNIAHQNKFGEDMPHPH
How it was run: as §1

T1 sequence (Q9UKV0 whole entry, species assumed): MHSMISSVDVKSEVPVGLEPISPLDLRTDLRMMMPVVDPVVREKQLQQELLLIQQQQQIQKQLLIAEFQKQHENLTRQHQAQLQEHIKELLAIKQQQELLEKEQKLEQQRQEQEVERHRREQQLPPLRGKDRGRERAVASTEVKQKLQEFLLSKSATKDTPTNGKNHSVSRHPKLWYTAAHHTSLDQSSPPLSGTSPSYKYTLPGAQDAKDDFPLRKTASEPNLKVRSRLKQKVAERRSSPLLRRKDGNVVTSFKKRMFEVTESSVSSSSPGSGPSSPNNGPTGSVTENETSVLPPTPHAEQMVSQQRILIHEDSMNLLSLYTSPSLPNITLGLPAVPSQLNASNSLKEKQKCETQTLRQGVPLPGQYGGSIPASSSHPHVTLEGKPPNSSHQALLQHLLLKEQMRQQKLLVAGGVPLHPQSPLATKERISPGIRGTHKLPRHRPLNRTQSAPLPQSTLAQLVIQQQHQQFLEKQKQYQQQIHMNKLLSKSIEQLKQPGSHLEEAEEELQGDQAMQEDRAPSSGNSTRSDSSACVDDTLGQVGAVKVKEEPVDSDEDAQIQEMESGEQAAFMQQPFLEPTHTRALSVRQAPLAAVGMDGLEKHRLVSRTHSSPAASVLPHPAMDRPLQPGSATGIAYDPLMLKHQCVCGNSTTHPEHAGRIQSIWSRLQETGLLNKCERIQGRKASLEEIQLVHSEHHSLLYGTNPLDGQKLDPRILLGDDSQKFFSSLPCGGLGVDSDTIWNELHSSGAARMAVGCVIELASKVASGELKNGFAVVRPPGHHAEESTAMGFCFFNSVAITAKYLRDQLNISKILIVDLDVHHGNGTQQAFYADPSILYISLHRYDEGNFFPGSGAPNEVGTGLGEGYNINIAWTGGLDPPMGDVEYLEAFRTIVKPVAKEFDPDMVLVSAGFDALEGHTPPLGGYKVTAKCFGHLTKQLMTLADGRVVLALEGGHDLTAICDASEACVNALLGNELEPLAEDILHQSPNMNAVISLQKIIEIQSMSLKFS
T2 sequence (Q13547 whole entry): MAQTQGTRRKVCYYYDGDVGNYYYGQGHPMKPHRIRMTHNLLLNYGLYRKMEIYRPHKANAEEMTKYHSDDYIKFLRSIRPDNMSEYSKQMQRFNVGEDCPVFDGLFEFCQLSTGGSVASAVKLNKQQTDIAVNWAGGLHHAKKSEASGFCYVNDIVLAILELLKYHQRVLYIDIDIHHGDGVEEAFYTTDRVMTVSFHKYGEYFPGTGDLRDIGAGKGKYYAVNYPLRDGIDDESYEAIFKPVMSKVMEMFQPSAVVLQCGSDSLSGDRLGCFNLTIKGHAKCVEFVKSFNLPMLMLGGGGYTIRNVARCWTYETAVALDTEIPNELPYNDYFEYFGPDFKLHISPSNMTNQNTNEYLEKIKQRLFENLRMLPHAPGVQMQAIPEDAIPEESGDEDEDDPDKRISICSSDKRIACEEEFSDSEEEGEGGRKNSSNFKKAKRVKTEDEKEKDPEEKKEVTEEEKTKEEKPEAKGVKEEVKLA

Compound | inhibition at 1 µM (HDAC9 enzyme) [%] | inhibition at 1 µM (HDAC1 enzyme) [%] | inhibition at 1 µM (HDAC6 enzyme) [%]
CC(=O)N1CCC(N2Cc3ncc(-c4noc(C(F)(F)F)n4)cc3C2=O)CC1 [Example 38, 6-(1-acetylpiperidin-4-yl)-3-(5-(trifluoromethyl)-1,2,4-oxadiazol-3-yl)-6,7-dihydro-5H-pyrrolo[3,4-b]pyridin-5-one] | 82 | 25 | 90
O=C1CCCN1c1cccc(Cl)c1N1Cc2ccc(-c3noc(C(F)(F)F)n3)cc2C1=O [Example 185, 2-(2-chloro-6-(2-oxopyrrolidin-1-yl)phenyl)-6-(5-(trifluoromethyl)-1,2,4-oxadiazol-3-yl)isoindolin-1-one] | 41 | 5 | 97
O=C(N[C@@H]1CCCC[C@H]1N1Cc2ccc(-c3noc(C(F)(F)F)n3)cc2C1=O)N1C2CCC1COC2 [Example 145, N-((1R,2R)-2-(1-oxo-6-(5-(trifluoromethyl)-1,2,4-oxadiazol-3-yl)-1,3-dihydro-2H-isoindol-2-yl)cyclohexyl)-3-oxa-8-azabicyclo[3.2.1]octane-8-carboxamide] | 35 | 0 | 98
O=C1c2cc(-c3noc(C(F)(F)F)n3)ccc2CN1[C@H]1CCc2ccccc21 [Example 24, 2-((1S)-2,3-dihydro-1H-inden-1-yl)-6-(5-(trifluoromethyl)-1,2,4-oxadiazol-3-yl)isoindolin-1-one] | 52 | 6 | 95
CC(C)(C)OC(=O)N1CC[C@H](N2Cc3cc(-c4noc(C(F)(F)F)n4)ccc3C2=O)[C@H](c2ccccc2)C1 (relative stereo) [Example 78, tert-butyl cis-4-(1-oxo-5-(5-(trifluoromethyl)-1,2,4-oxadiazol-3-yl)-1,3-dihydro-2H-isoindol-2-yl)-3-phenylpiperidine-1-carboxylate] | 76 | -3 | 11
C[C@H](c1ccccc1)N1CC[C@H]2CC[C@H](N3Cc4ccc(-c5noc(C(F)(F)F)n5)cc4C3=O)[C@H]21 [Example 63, 2-((3aR,6S,6aS)-1-((1R)-1-phenylethyl)octahydrocyclopenta[b]pyrrol-6-yl)-6-(5-(trifluoromethyl)-1,2,4-oxadiazol-3-yl)isoindolin-1-one] | 82 | 15 | 90
O=C1c2cc(-c3noc(C(F)(F)F)n3)ccc2CN1[C@@H]1CCNC[C@H]1c1ccccc1 [Example 15, 2-((3R,4R)-3-phenylpiperidin-4-yl)-6-(5-(trifluoromethyl)-1,2,4-oxadiazol-3-yl)isoindolin-1-one] | 99 | 97 | 98
CC(=O)N1CCC(N2Cc3ncc(-c4noc(C(F)(F)F)n4)cc3C2=O)C1 (stereo not drawn) [Example 69, 6-(1-acetylpyrrolidin-3-yl)-3-(5-(trifluoromethyl)-1,2,4-oxadiazol-3-yl)-6,7-dihydro-5H-pyrrolo[3,4-b]pyridin-5-one] | 81 | 15 | 91

Results, then the compound that gave them:

inhibition at 1 µM (HDAC9 enzyme) [%] | inhibition at 1 µM (HDAC1 enzyme) [%] | inhibition at 1 µM (HDAC6 enzyme) [%] | Compound
72 | 6 | 76 | N[C@@H]1CCCC[C@H]1N1Cc2ccc(-c3noc(C(F)(F)F)n3)cc2C1=O (relative stereo) [Example 7, trans-2-(2-aminocyclohexyl)-6-(5-(trifluoromethyl)-1,2,4-oxadiazol-3-yl)isoindolin-1-one]
38 | 11 | 99 | N#CC12CC(C(=O)N[C@@H]3CCCC[C@H]3N3Cc4ccc(-c5noc(C(F)(F)F)n5)cc4C3=O)(C1)C2 [Example 160, 3-cyano-N-((1R,2R)-2-(1-oxo-6-(5-(trifluoromethyl)-1,2,4-oxadiazol-3-yl)-1,3-dihydro-2H-isoindol-2-yl)cyclohexyl)bicyclo[1.1.1]pentane-1-carboxamide]
46 | 5 | 98 | O=C1CCC(C(=O)N[C@@H]2CCCC[C@H]2N2Cc3ccc(-c4noc(C(F)(F)F)n4)cc3C2=O)=NN1 [Example 118, 6-oxo-N-((1R,2R)-2-(1-oxo-6-(5-(trifluoromethyl)-1,2,4-oxadiazol-3-yl)-1,3-dihydro-2H-isoindol-2-yl)cyclohexyl)-1,4,5,6-tetrahydropyridazine-3-carboxamide]
56 | 10 | 55 | O=C(N[C@H]1CCOC[C@@H]1N1Cc2ccc(-c3noc(C(F)(F)F)n3)cc2C1=O)[C@H]1CCOC1 [Example 210, (3S)-N-((3R,4S)-3-(1-oxo-6-(5-(trifluoromethyl)-1,2,4-oxadiazol-3-yl)-1,3-dihydro-2H-isoindol-2-yl)tetrahydro-2H-pyran-4-yl)tetrahydrofuran-3-carboxamide]
76 | 16 | 36 | CC(C)(C)OC(=O)N[C@H]1CCCC[C@@H]1N1Cc2ccc(-c3noc(C(F)(F)F)n3)cc2C1=O [Example 27, tert-butyl ((1S,2S)-2-(1-oxo-6-(5-(trifluoromethyl)-1,2,4-oxadiazol-3-yl)-1,3-dihydro-2H-isoindol-2-yl)cyclohexyl)carbamate]
42 | 2 | 95 | O=C1C[C@@H](C(=O)N[C@@H]2CCCC[C@H]2N2Cc3ccc(-c4noc(C(F)(F)F)n4)cc3C2=O)N1 [Example 93, (2S)-4-oxo-N-((1R,2R)-2-(1-oxo-6-(5-(trifluoromethyl)-1,2,4-oxadiazol-3-yl)-1,3-dihydro-2H-isoindol-2-yl)cyclohexyl)azetidine-2-carboxamide]
84 | 53 | 101 | CC(C)(C)OC(=O)N1CC[C@@H](N2Cc3ccc(-c4noc(C(F)(F)F)n4)cc3C2=O)[C@H](c2ccccc2)C1 [Example 13, tert-butyl (3R,4R)-4-(1-oxo-6-(5-(trifluoromethyl)-1,2,4-oxadiazol-3-yl)-1,3-dihydro-2H-isoindol-2-yl)-3-phenylpiperidine-1-carboxylate]
52 | 7 | 99 | CC1CC1C(=O)N[C@@H]1CCCC[C@H]1N1Cc2ccc(-c3noc(C(F)(F)F)n3)cc2C1=O (stereo partly drawn) [Example 102, 2-methyl-N-((1R,2R)-2-(1-oxo-6-(5-(trifluoromethyl)-1,2,4-oxadiazo-3-yl)-1,3-dihydro-2H-isoindol-2-yl)cyclohexyl) cyclopropanecarboxamide]
57 | 5 | 100 | COC1(C(=O)N[C@@H]2CCCC[C@H]2N2Cc3ccc(-c4noc(C(F)(F)F)n4)cc3C2=O)CCC1 [Example 175, 1-methoxy-N-((1R,2R)-2-(1-oxo-6-(5-(trifluoromethyl)-1,2,4-oxadiazol-3-yl)-1,3-dihydro-2H-isoindol-2-yl)cyclohexyl)cyclobutanecarboxamide]
50 | 7 | 100 | O=C(N[C@@H]1CCCC[C@H]1N1Cc2ccc(-c3noc(C(F)(F)F)n3)cc2C1=O)C1CC1(F)F (stereo partly drawn) [Example 105, 2,2-difluoro-N-((1R,2R)-2-(1-oxo-6-(5-(trifluoromethyl)-1,2,4-oxadiazol-3-yl)-1,3-dihydro-2H-isoindol-2-yl)cyclohexyl) cyclopropanecarboxamide]
